These results are taken from patent US6514989B1, “Aromatic and heteroaromatic substituted 1,2,4-triazolo pyridine derivatives” (Hoffmann-La Roche Inc., priority 2001, dated 2003).

T1 sequence (P29274 whole entry): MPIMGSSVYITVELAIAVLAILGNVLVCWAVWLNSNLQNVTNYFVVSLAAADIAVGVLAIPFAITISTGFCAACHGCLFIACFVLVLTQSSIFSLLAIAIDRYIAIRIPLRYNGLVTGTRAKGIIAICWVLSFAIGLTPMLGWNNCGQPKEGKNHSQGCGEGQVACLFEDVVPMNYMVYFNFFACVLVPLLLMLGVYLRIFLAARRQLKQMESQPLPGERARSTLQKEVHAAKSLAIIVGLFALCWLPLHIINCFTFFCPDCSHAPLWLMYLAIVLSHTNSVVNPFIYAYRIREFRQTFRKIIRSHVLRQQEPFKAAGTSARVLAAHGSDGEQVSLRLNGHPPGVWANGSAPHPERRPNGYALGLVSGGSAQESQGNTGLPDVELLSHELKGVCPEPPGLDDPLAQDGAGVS

This experiment addresses T1, human adenosine A2a receptor (Homo sapiens, UniProt P29274).
T1 construct: expressed in transfected cells; host or cells: CHO cells, semliki forest virus expression system; membrane preparation
The experiment can be described thus: Human adenosine A2a receptor radioligand binding assay ([125I]-AB-MECA, CHO cell membranes). The settings on record: recombinant human A2a receptor expressed in CHO cells; Ki from IC50 by Cheng-Prussoff equation; read-out: hA2a Ki. The method, then: Human Adenosine A2a Receptor
The gene encoding human adenosine A2a receptor was recombinantly introduced and expressed in chinese hamster ovary (CHO) cells using the semliki forest virus expression system. Cells were harvested, washed twice by centrifugation, homogenized and again washed by centrifugation. The final washed membrane pellet was suspended in a Tris (50 mM) buffer containing 120 mM NaCl, 5 mM KCl, 2 mM CaCl2 and 10 mM MgCl2 (pH 7.4) (buffer A). The [^125I]-AB-MECA ([N(6)-(4-amino-3-iodobenzyl)-5′-N-methylcarbamoyl-adenosine]; 0.05 nM) binding assay was carried out in 96-well a plates in the presence of 20 μg of membrane protein and 0.1 U adenosine deaminase in a final volume of […] of buffer A. Non-specific binding was defined using xanthine amine congener (XAC; 2 μM). Compounds were tested at 10 concentrations from 10 μM-0.3 nM. All assays were conducted in duplicate and repeated at least two times. Assay plates were incubated for 1 hour at room temperature before filtration through Whatman Unifilter GF/C 96-well filter plates (preincubated with 0.3% polyethyleneimine). Filters were washed 3 times with 0.3 ml of cold (4° C.) Tris (50 mM)—NaC […]
[…] 1 (120 mM) buffer (pH 7.4). Microscint 40 scintillation fluid (50 μl) was added to each well and the wells sealed. After gentle shaking for 20 min, plates were counted on a Packard Topcount scintillation counter. IC50 values were calculated using a non-linear curve fitting program and Ki values calculated using the Cheng-Prussoff equation.
In accordance with the invention, it has been shown that compounds of formula I have a high affinity toward the A2A receptor. In Table I below specific values of prepared compounds are described, Values of KiHA2A and KiHA1 are shown in Table I for compounds of formula 1. A low Ki value is indicative of a particular compound's high affinity toward a particular receptor and conversely a higher Ki value is indicative of a lower affinity for that compound toward a particular receptor. […] Generally speaking, compounds that have a higher HA1/HA2A ratio are able to give a substantially complete blockade of the HA2A receptor without substantially affecting the A1 receptor.
On to “5-Methyl-thiophene-2-carboxylic acid[8-methoxy-5-(4-vinyl-phenyl)-[1,2,4]triazolo[1,5-a]pyridin-2-yl]-amide [Example 44]”, for which the Ki came to 246 nM.
Turning to `COc1ccc(-c2ccccc2)n2nc(NC(=O)c3ccccc3F)nc12` [Example 21, 2-Fluoro-N-(8-methoxy-5-phenyl-[1,2,4]triazolo[1,5-a]pyridin-2-yl)-benzamide], the Ki worked out at 384 nM.
As to `COc1ccc(-c2ccccc2)n2nc(NC(=O)c3ccccc3Br)nc12` [Example 22, 2-Bromo-N-(8-methoxy-5-phenyl-[1,2,4]triazolo[1,5-a]pyridin-2-yl)-benzamide], the inhibitory constant (Ki) is 266 nM.
With `COc1ccc(-c2ccccc2Cl)n2nc(NC(=O)c3ccc(C)s3)nc12` [Example 36, 5-Methyl-thiophene-2-carboxylic acid [5-(2-chloro-phenyl)-8-methoxy-[1,2,4]triazolo[1,5-a]pyridin-2-yl]-amide], the inhibition constant Ki was determined as 527 nM.
`COc1ccc(-c2ccccc2C)n2nc(NC(=O)c3ccc(C)s3)nc12` [Example 37, 5-Methyl-thiophene-2-carboxylic acid (8-methoxy-5-o-tolyl-[1,2,4]triazolo[1,5-a]pyridin-2-yl)-amide]: the Ki stood at 938 nM.
Consider `COc1ccc(-c2cccc(C)c2)n2nc(NC(=O)c3ccc(C)s3)nc12` [Example 38, 5-Methyl-thiophene-2-carboxylic acid (8-methoxy-5-m-tolyl [1,2,4]triazolo[1,5-a]pyridin-2-yl)-amide], for which the Ki was determined as 277 nM.
In the case of `COc1ccc(-c2ccc(C)cc2)n2nc(NC(=O)c3ccc(C)s3)nc12` [Example 39, 5-Methyl-thiophene-2-carboxylic acid (8-methoxy-5-p-tolyl-[1,2,4]triazolo[1,5-a]pyridin-2-yl)-amide], the Ki was determined as 451 nM.
As to `COc1ccc(-c2cccc(C(F)(F)F)c2)n2nc(NC(=O)c3ccc(C)s3)nc12` [Example 40, 5-Methyl-thiophene-2-carboxylic acid [8-methoxy-5-(3-trifluoromethyl-phenyl)-[1,2,4]triazolo[1,5-a]pyridin-2-yl]-amide], the inhibition constant Ki was found to be 547 nM.
In the case of `COc1ccc(-c2cccc(NC(C)=O)c2)n2nc(NC(=O)c3ccc(C)s3)nc12` [Example 41, 5-Methyl-thiophene-2-carboxylic acid [5-(3-acetylamino-phenyl)-8-methoxy-[1,2,4]triazolo[1,5-a]pyridin-2-yl]-amide], the Ki turned out to be 254 nM.
As for `COc1ccc(-c2ccc(SC)cc2)n2nc(NC(=O)c3ccc(C)s3)nc12` [Example 42, 5-Methyl-thiophene-2-carboxylic acid [8-methoxy-5-(4-methylsulfanyl-phenyl)-[1,2,4]triazolo[1,5-a]pyridin-2-yl]-amide], the Ki stood at 287 nM.
Consider `COc1ccc(-c2cccc(C(C)=O)c2)n2nc(NC(=O)c3ccc(C)s3)nc12` [Example 43, 5-Methyl-thiophene-2-carboxylic acid [5-(3-acetyl-phenyl)-8-methoxy-[1,2,4]triazolo[1,5-a]pyridin-2-yl]-amide], for which the Ki is 618 nM.
For the compound `COc1ccc(-c2ccc3[nH]ccc3c2)n2nc(NC(=O)c3ccc(C)s3)nc12` [Example 45, 5-Methyl-thiophene-2-carboxylic acid [5-(1H-indol-5-yl)-8-methoxy-[1,2,4]triazolo[1,5-a]pyridin-2-yl]-amide], the inhibition constant Ki amounted to 852 nM.
On to `CCOC(=O)c1cccc(-c2ccc(OC)c3nc(NC(=O)c4ccc(C)s4)nn23)c1` [Example 46, 3-{8-Methoxy-2-[(5-methyl-thiophene-2-carbonyl)-amino]-[1,2,4]triazolo[1,5-a]pyridin-5-yl}-benzoic acid ethyl ester], for which the inhibitory constant (Ki) came out at 332 nM.
Take `COc1ccc(-c2cccc(Cl)c2)n2nc(NC(=O)c3ccc(F)cc3)nc12` [Example 47, N-[5-(3-Chloro-phenyl)-8-methoxy-[1,2,4]triazolo[1,5-a]pyridin-2-yl]-4-fluoro-benzamide]: the inhibition constant Ki was 269 nM.

One may read the Ki as the equilibrium dissociation constant of an inhibitor or competing ligand from its target.
